± gives the expanded uncertainty stated by the source.
Assay: wn = mass fraction of the nth substance listed
Conditions: Gas, sonar gas analyzer

FC(F)(F)C(F)(F)C(F)(F)F [octafluoropropane] + FC(F)(F)C(F)(F)C(F)(F)C(F)(F)F
speed of sound [m/s]
Conditions | w1 = 0.397 | w1 = 0.83
248.2 K, 10 kPa | – | 105.12 ± 1.2
248.2 K, 13 kPa | – | 105.03 ± 1.2
248.2 K, 20 kPa | – | 104.84 ± 1.2
248.2 K, 27 kPa | – | 104.58 ± 1.2
248.2 K, 30 kPa | – | 104.45 ± 1.2
248.2 K, 33 kPa | – | 104.36 ± 1.2
248.2 K, 40 kPa | – | 104.12 ± 1.2
248.2 K, 47 kPa | – | 103.84 ± 1.2
248.2 K, 50 kPa | – | 103.75 ± 1.2
248.2 K, 53 kPa | – | 103.57 ± 1.2
248.2 K, 60 kPa | – | 103.27 ± 1.2
248.2 K, 67 kPa | – | 103.07 ± 1.2
259.2 K, 10 kPa | 102.59 ± 1.2 | 107.4 ± 1.2
259.2 K, 20 kPa | 102.16 ± 1.2 | 107.18 ± 1.2
259.2 K, 30 kPa | 101.68 ± 1.2 | 106.95 ± 1.2
259.2 K, 50 kPa | 101.06 ± 1.2 | 106.3 ± 1.2
259.2 K, 70 kPa | 100.12 ± 1.2 | 105.81 ± 1.2
259.2 K, 100 kPa | – | 104.56 ± 1.2
259.2 K, 150 kPa | – | 102.68 ± 1.2
259.2 K, 200 kPa | – | 101.95 ± 1.2
271.3 K, 10 kPa | – | 109.58 ± 1.2
271.3 K, 20 kPa | – | 109.17 ± 1.2
271.3 K, 30 kPa | – | 108.68 ± 1.2
271.3 K, 50 kPa | – | 107.95 ± 1.2
271.3 K, 70 kPa | – | 107.66 ± 1.2
271.3 K, 100 kPa | – | 106.4 ± 1.2
271.3 K, 150 kPa | – | 104.9 ± 1.2
271.3 K, 200 kPa | – | 103.44 ± 1.2
271.3 K, 250 kPa | – | 102.59 ± 1.2
271.4 K, 10 kPa | 104.64 ± 1.2 | –
271.4 K, 20 kPa | 104.3 ± 1.2 | –
271.4 K, 30 kPa | 103.82 ± 1.2 | –
271.4 K, 50 kPa | 103.1 ± 1.2 | –
271.4 K, 70 kPa | 102.4 ± 1.2 | –
271.4 K, 100 kPa | 101.14 ± 1.2 | –
271.4 K, 150 kPa | 99.12 ± 1.2 | –
283.1 K, 10 kPa | 106.56 ± 1.2 | 112.12 ± 1.2
283.1 K, 20 kPa | 106.36 ± 1.2 | 111.72 ± 1.2
283.1 K, 30 kPa | 105.98 ± 1.2 | 111.47 ± 1.2
283.1 K, 50 kPa | 105.5 ± 1.2 | 111.19 ± 1.2
283.1 K, 70 kPa | 104.76 ± 1.2 | 110.59 ± 1.2
283.1 K, 100 kPa | 103.71 ± 1.2 | 109.75 ± 1.2
283.1 K, 150 kPa | 101.86 ± 1.2 | 108.4 ± 1.2
283.1 K, 200 kPa | 100.08 ± 1.2 | 106.92 ± 1.2
283.1 K, 250 kPa | – | 105.34 ± 1.2
283.1 K, 297 kPa | – | 103.72 ± 1.2
283.1 K, 350 kPa | – | 101.99 ± 1.2
283.1 K, 400 kPa | – | 100.1 ± 1.2
294 K, 10 kPa | 109.01 ± 1.2 | –
294 K, 20 kPa | 108.7 ± 1.2 | –
294 K, 30 kPa | 108.4 ± 1.2 | –
294 K, 50 kPa | 107.67 ± 1.2 | –
294 K, 70 kPa | 107.07 ± 1.2 | –
294 K, 100 kPa | 106.22 ± 1.2 | –
294 K, 150 kPa | 104.61 ± 1.2 | –
294 K, 200 kPa | 103.01 ± 1.2 | –
294.1 K, 10 kPa | – | 114.96 ± 1.2
294.1 K, 20 kPa | – | 114.62 ± 1.2
294.1 K, 30 kPa | – | 114.35 ± 1.2
294.1 K, 50 kPa | – | 113.75 ± 1.2
294.1 K, 70 kPa | – | 113.21 ± 1.2
294.1 K, 100 kPa | – | 112.3 ± 1.2
294.1 K, 150 kPa | – | 111 ± 1.2
294.1 K, 200 kPa | – | 109.85 ± 1.2
301.4 K, 10 kPa | – | 116.15 ± 1.2
301.4 K, 20 kPa | – | 116.05 ± 1.2
301.4 K, 30 kPa | – | 115.78 ± 1.2
301.4 K, 50 kPa | – | 115.29 ± 1.2
301.4 K, 70 kPa | – | 114.72 ± 1.2
301.4 K, 100 kPa | – | 114.03 ± 1.2
301.4 K, 150 kPa | – | 112.72 ± 1.2
301.4 K, 200 kPa | – | 111.59 ± 1.2
302.1 K, 10 kPa | 110.14 ± 1.2 | –
302.1 K, 20 kPa | 109.74 ± 1.2 | –
302.1 K, 30 kPa | 109.67 ± 1.2 | –
302.1 K, 50 kPa | 109.29 ± 1.2 | –
302.1 K, 70 kPa | 108.73 ± 1.2 | –
302.1 K, 100 kPa | 107.89 ± 1.2 | –

From the NIST ThermoML archive (doi:10.1016/j.fluid.2010.01.027)
